Measurements: PubChem BioAssay AID2060350 (Molecular Pharmacology Branch, DTP, NCI, 2025)

Test system: PDC 521955-158-R6-J3 spheroids, viability
Test: Anticancer human tumor 521955-158-R6-J3-PDC patient-derived pancreatic carcinoma cell line growth inhibition [TAK]
Conditions: spheroids with HUVEC and MSC; for IC50: curve of first compound; for viability, T/C: stronger effect = lower value
In short: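 Spheroids of 60% malignant cells, 25% HUVEC and 15% hMSC were exposed to targeted agents combined with TAK-243 or ipatasertib. Concentrations started at or near clinical Cmax (10 microM if unknown) and descended in half-log steps.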

[1] = second compound 0.3 µM, first compound 0.0316 µM
[2] = second compound 0.3 µM, first compound 0.1 µM
[3] = second compound 0.949 µM, first compound 0.0316 µM
[4] = second compound 0.949 µM, first compound 0.1 µM
[5] = second compound 3 µM, first compound 0.0316 µM
[6] = second compound 3 µM, first compound 0.1 µM
[7] = second compound 9.49 µM, first compound 0.0316 µM
[8] = second compound 9.49 µM, first compound 0.1 µM
[9] = second compound 30 µM, first compound 0.0316 µM
[10] = second compound 30 µM, first compound 0.1 µM
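Also: spheroids exposed to drugs for 7 days before readout.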
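For viability, T/C in this document: 100% = DMSO vehicle control viability.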

CC(C)(C)c1nc(-c2cccc(NS(=O)(=O)c3c(F)cccc3F)c2F)c(-c2ccnc(N)n2)s1 + CC(C)NCC(C(=O)N1CCN(c2ncnc3c2C(C)CC3O)CC1)c1ccc(Cl)cc1
IC50 (second compound 0.3 µM): > 10000 nM | IC50 (second compound 0.949 µM): > 10000 nM | IC50 (second compound 3 µM): > 10000 nM | IC50 (second compound 9.49 µM): > 10000 nM | IC50 (second compound 30 µM): > 10000 nM | viability, T/C [1]: 104% | viability, T/C [2]: 128% | viability, T/C (second compound 0.3 µM, first compound 0.316 µM): 136% | viability, T/C (second compound 0.3 µM, first compound 1 µM): 129% | viability, T/C (second compound 0.3 µM, first compound 3.16 µM): 107% | viability, T/C (second compound 0.3 µM, first compound 10 µM): 107% | viability, T/C [3]: 98.7% | viability, T/C [4]: 123% | viability, T/C (second compound 0.949 µM, first compound 0.316 µM): 136% | viability, T/C (second compound 0.949 µM, first compound 1 µM): 129% | viability, T/C (second compound 0.949 µM, first compound 3.16 µM): 105% | viability, T/C (second compound 0.949 µM, first compound 10 µM): 85.8% | viability, T/C [5]: 91.9% | viability, T/C [6]: 110% | viability, T/C (second compound 3 µM, first compound 0.316 µM): 117% | viability, T/C (second compound 3 µM, first compound 1 µM): 119% | viability, T/C (second compound 3 µM, first compound 3.16 µM): 100% | viability, T/C (second compound 3 µM, first compound 10 µM): 73.8% | viability, T/C [7]: 84.2% | viability, T/C [8]: 97.4% | viability, T/C (second compound 9.49 µM, first compound 0.316 µM): 118% | viability, T/C (second compound 9.49 µM, first compound 1 µM): 119% | viability, T/C (second compound 9.49 µM, first compound 3.16 µM): 94.8% | viability, T/C (second compound 9.49 µM, first compound 10 µM): 65% | viability, T/C [9]: 87.9% | viability, T/C [10]: 83.5% | viability, T/C (second compound 30 µM, first compound 0.316 µM): 95.5% | viability, T/C (second compound 30 µM, first compound 1 µM): 83.8% | viability, T/C (second compound 30 µM, first compound 3.16 µM): 73.2% | viability, T/C (second compound 30 µM, first compound 10 µM): 68.6%

CC(C)CC(NC(=O)CNC(=O)c1cc(Cl)ccc1Cl)B1OC(=O)CC(CC(=O)O)(C(=O)O)O1 (stereo not given) + CC(C)NCC(C(=O)N1CCN(c2ncnc3c2C(C)CC3O)CC1)c1ccc(Cl)cc1
IC50 (second compound 0.3 µM): 55.9 nM | IC50 (second compound 0.949 µM): 54.3 nM | IC50 (second compound 3 µM): 49.1 nM | IC50 (second compound 9.49 µM): 41.8 nM | IC50 (second compound 30 µM): 33.6 nM | viability, T/C (second compound 0.3 µM, first compound 0.000316 µM): 86.8% | viability, T/C (second compound 0.3 µM, first compound 0.001 µM): 92.5% | viability, T/C (second compound 0.3 µM, first compound 0.00316 µM): 106% | viability, T/C (second compound 0.3 µM, first compound 0.01 µM): 97.8% | viability, T/C [1]: 92.9% | viability, T/C [2]: 6.28% | viability, T/C (second compound 0.949 µM, first compound 0.000316 µM): 84.3% | viability, T/C (second compound 0.949 µM, first compound 0.001 µM): 93.8% | viability, T/C (second compound 0.949 µM, first compound 0.00316 µM): 97.9% | viability, T/C (second compound 0.949 µM, first compound 0.01 µM): 100% | viability, T/C [3]: 89.1% | viability, T/C [4]: 5.88% | viability, T/C (second compound 3 µM, first compound 0.000316 µM): 86.3% | viability, T/C (second compound 3 µM, first compound 0.001 µM): 90.7% | viability, T/C (second compound 3 µM, first compound 0.00316 µM): 92.6% | viability, T/C (second compound 3 µM, first compound 0.01 µM): 104% | viability, T/C [5]: 78.7% | viability, T/C [6]: 3.93% | viability, T/C (second compound 9.49 µM, first compound 0.000316 µM): 92.7% | viability, T/C (second compound 9.49 µM, first compound 0.001 µM): 92.5% | viability, T/C (second compound 9.49 µM, first compound 0.00316 µM): 96.9% | viability, T/C (second compound 9.49 µM, first compound 0.01 µM): 98% | viability, T/C [7]: 65% | viability, T/C [8]: 3.75% | viability, T/C (second compound 30 µM, first compound 0.000316 µM): 82.3% | viability, T/C (second compound 30 µM, first compound 0.001 µM): 85.2% | viability, T/C (second compound 30 µM, first compound 0.00316 µM): 85% | viability, T/C (second compound 30 µM, first compound 0.01 µM): 99.5% | viability, T/C [9]: 52.7% | viability, T/C [10]: 2.76%
